Measurements reported in ChEMBL document CHEMBL1146471, “Camptothecin and taxol: historic achievements in natural products research” (J Nat Prod, 2004).

Species on record: Homo sapiens
Test: Anticancer activity against human with metastatic pancreatic cancer assessed as median survival
Type: functional

SMILES: CCc1c2c(nc3ccc(OC(=O)N4CCC(N5CCCCC5)CC4)cc13)-c1cc3c(c(=O)n1C2)COC(=O)[C@]3(O)CC
- Survival: 10.3 months
